Experimental data reported in PubChem BioAssay AID330 (DTP/NCI, 2004).
Values joined by “and” are separate entries in the source; they are usually repeats but may differ in a detail not shown here. Equal entries are not always repeated. Inconclusive results and toxic doses are left out. How the source made its calls: active means survival T/C of 150% or more; inactive means T/C below 125% in these data.

Tested on: P388 leukemia ip, CD2F1 mice, survival T/C
Assay: NCI In Vivo Anticancer Drug Screen. Data for tumor model P388 Leukemia (intraperitoneal) in CD2F1 (CDF1) mice
Conditions: endpoint: median survival time, higher = longer survival
Outline: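 Mice carrying the transplanted tumor received test compound or vehicle. Survival was recorded in each group, and the value is the treated-group measurement divided by that of the vehicle-treated control group.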

Measured: T/C

S=c1nc[nH]c2nc[nH]c12
inactive: dose: 9.38 mg/kg/injection, schedule: Q01DX009 (ip), vehicle: alkali diluted with saline 111 % of control | dose: 18.8 mg/kg/injection, schedule: Q01DX009 (ip), vehicle: alkali diluted with saline 105 % of control | dose: 20.0 mg/kg/injection, schedule: Q01DX005 (ip), vehicle: alkali diluted with saline 110 % of control | dose: 20.0 mg/kg/injection, schedule: Q01DX005 (ip), vehicle: other 108 % of control and 92 % of control | dose: 20.0 mg/kg/injection, schedule: Q01DX009 (ip), vehicle: alkali diluted with saline 95 % of control | dose: 20.0 mg/kg/injection, schedule: Q01DX009 (ip), vehicle: alkali diluted with water 118 % of control | dose: 20.0 mg/kg/injection, schedule: Q04DX003 (ip), vehicle: other 110 % of control | dose: 20.0 mg/kg/injection, schedule: Q04DX003 (iv), vehicle: other 116 % of control | dose: 25.0 mg/kg/injection, schedule: Q01DX005 (ip), vehicle: alkali diluted with saline 105 % of control | dose: 25.0 mg/kg/injection, schedule: Q01DX005 (ip), vehicle: alkali diluted with water 100 % of control | dose: 25.0 mg/kg/injection, schedule: Q01DX009 (ip), vehicle: Klucel (hydroxypropylcellulose) (HPC) 115 % of control | dose: 28.13 mg/kg/injection, schedule: Q04DX003 (ip), vehicle: alkali diluted with saline 105 % of control | dose: 37.5 mg/kg/injection, schedule: Q01DX009 (ip), vehicle: alkali diluted with saline 110 % of control | dose: 37.5 mg/kg/injection, schedule: Q04DX003 (ip), vehicle: Klucel (hydroxypropylcellulose) (HPC) 121 % of control | dose: 40.0 mg/kg/injection, schedule: Q01DX001 (ip), vehicle: other 111 % of control | dose: 40.0 mg/kg/injection, schedule: Q01DX001 (iv), vehicle: other 100 % of control | dose: 40.0 mg/kg/injection, schedule: Q01DX005 (ip), vehicle: alkali diluted with saline 119 % of control | dose: 40.0 mg/kg/injection, schedule: Q01DX005 (ip), vehicle: other 107 % of control and 119 % of control | dose: 40.0 mg/kg/injection, schedule: Q01DX009 (ip), vehicle: alkali diluted with saline 101 % of control and 105 % of control and 97 % of control | dose: 40.0 mg/kg/injection, schedule: Q01DX009 (ip), vehicle: alkali diluted with water 86 % of control | dose: 40.0 mg/kg/injection, schedule: Q04DX003 (ip), vehicle: other 117 % of control | dose: 40.0 mg/kg/injection, schedule: Q04DX003 (iv), vehicle: other 99 % of control | dose: 50.0 mg/kg/injection, schedule: Q01DX005 (ip), vehicle: alkali diluted with saline 113 % of control | dose: 50.0 mg/kg/injection, schedule: Q01DX005 (ip), vehicle: alkali diluted with water 111 % of control | dose: 50.0 mg/kg/injection, schedule: Q01DX005 (ip), vehicle: saline 105 % of control | dose: 50.0 mg/kg/injection, schedule: Q01DX009 (ip), vehicle: Klucel (hydroxypropylcellulose) (HPC) 123 % of control | dose: 50.0 mg/kg/injection, schedule: Q01DX009 (ip), vehicle: alkali diluted with saline 99 % of control and 104 % of control | dose: 56.25 mg/kg/injection, schedule: Q04DX003 (ip), vehicle: alkali diluted with saline 99 % of control | dose: 60.0 mg/kg/injection, schedule: Q01DX009 (ip), vehicle: alkali diluted with saline 102 % of control and 113 % of control | dose: 75.0 mg/kg/injection, schedule: Q01DX009 (ip), vehicle: alkali diluted with saline 117 % of control | dose: 75.0 mg/kg/injection, schedule: Q04DX003 (ip), vehicle: Klucel (hydroxypropylcellulose) (HPC) 117 % of control | dose: 80.0 mg/kg/injection, schedule: Q01DX001 (iv), vehicle: other 103 % of control | dose: 80.0 mg/kg/injection, schedule: Q01DX005 (ip), vehicle: alkali diluted with saline 120 % of control | dose: 80.0 mg/kg/injection, schedule: Q01DX005 (ip), vehicle: other 95 % of control | dose: 80.0 mg/kg/injection, schedule: Q01DX009 (ip), vehicle: alkali diluted with saline 95 % of control | dose: 80.0 mg/kg/injection, schedule: Q04DX003 (iv), vehicle: other 104 % of control | dose: 100.0 mg/kg/injection, schedule: Q01DX005 (ip), vehicle: alkali diluted with saline 105 % of control | dose: 100.0 mg/kg/injection, schedule: Q01DX005 (ip), vehicle: alkali diluted with water 105 % of control | dose: 100.0 mg/kg/injection, schedule: Q01DX005 (ip), vehicle: saline 102 % of control and 108 % of control | dose: 112.5 mg/kg/injection, schedule: Q04DX003 (ip), vehicle: alkali diluted with saline 107 % of control | dose: 150.0 mg/kg/injection, schedule: Q01DX001 (ip), vehicle: alkali diluted with saline 101 % of control and 107 % of control | dose: 160.0 mg/kg/injection, schedule: Q01DX001 (iv), vehicle: other 103 % of control | dose: 160.0 mg/kg/injection, schedule: Q01DX005 (ip), vehicle: other 108 % of control and 112 % of control | dose: 160.0 mg/kg/injection, schedule: Q01DX009 (ip), vehicle: alkali diluted with saline 106 % of control | dose: 200.0 mg/kg/injection, schedule: Q01DX001 (ip), vehicle: alkali diluted with saline 108 % of control and 111 % of control | dose: 200.0 mg/kg/injection, schedule: Q01DX005 (ip), vehicle: alkali diluted with water 86 % of control | dose: 200.0 mg/kg/injection, schedule: Q01DX005 (ip), vehicle: saline 100 % of control and 115 % of control and 124 % of control | dose: 225.0 mg/kg/injection, schedule: Q04DX003 (ip), vehicle: alkali diluted with saline 98 % of control | dose: 250.0 mg/kg/injection, schedule: Q01DX001 (ip), vehicle: alkali diluted with saline 107 % of control | dose: 250.0 mg/kg/injection, schedule: Q01DX001 (ip), vehicle: saline 102 % of control | dose: 300.0 mg/kg/injection, schedule: Q01DX001 (ip), vehicle: alkali diluted with saline 112 % of control | dose: 320.0 mg/kg/injection, schedule: Q01DX001 (ip), vehicle: other 100 % of control | dose: 320.0 mg/kg/injection, schedule: Q01DX001 (iv), vehicle: other 108 % of control | dose: 320.0 mg/kg/injection, schedule: Q04DX003 (iv), vehicle: other 100 % of control | dose: 400.0 mg/kg/injection, schedule: Q01DX005 (ip), vehicle: saline 89 % of control | dose: 400.0 mg/kg/injection, schedule: Q01DX009 (ip), vehicle: Klucel (hydroxypropylcellulose) (HPC) 115 % of control | dose: 500.0 mg/kg/injection, schedule: Q01DX001 (ip), vehicle: saline 104 % of control | dose: 640.0 mg/kg/injection, schedule: Q01DX001 (iv), vehicle: other 105 % of control | dose: 1000.0 mg/kg/injection, schedule: Q01DX001 (ip), vehicle: saline 99 % of control
